Source: patent publication US20180118708A1, “CYCLIC COMPOUND” (Takeda Pharmaceutical Company Limited, priority 2015, published 2018)

Biological target: T1, TLR4 (Mus musculus, UniProt Q9QUK6)
T1 construct: endogenous in cells; host or cells: RAW264.7 (murine macrophage cell line)
T1 sequence (Q9QUK6 26-835): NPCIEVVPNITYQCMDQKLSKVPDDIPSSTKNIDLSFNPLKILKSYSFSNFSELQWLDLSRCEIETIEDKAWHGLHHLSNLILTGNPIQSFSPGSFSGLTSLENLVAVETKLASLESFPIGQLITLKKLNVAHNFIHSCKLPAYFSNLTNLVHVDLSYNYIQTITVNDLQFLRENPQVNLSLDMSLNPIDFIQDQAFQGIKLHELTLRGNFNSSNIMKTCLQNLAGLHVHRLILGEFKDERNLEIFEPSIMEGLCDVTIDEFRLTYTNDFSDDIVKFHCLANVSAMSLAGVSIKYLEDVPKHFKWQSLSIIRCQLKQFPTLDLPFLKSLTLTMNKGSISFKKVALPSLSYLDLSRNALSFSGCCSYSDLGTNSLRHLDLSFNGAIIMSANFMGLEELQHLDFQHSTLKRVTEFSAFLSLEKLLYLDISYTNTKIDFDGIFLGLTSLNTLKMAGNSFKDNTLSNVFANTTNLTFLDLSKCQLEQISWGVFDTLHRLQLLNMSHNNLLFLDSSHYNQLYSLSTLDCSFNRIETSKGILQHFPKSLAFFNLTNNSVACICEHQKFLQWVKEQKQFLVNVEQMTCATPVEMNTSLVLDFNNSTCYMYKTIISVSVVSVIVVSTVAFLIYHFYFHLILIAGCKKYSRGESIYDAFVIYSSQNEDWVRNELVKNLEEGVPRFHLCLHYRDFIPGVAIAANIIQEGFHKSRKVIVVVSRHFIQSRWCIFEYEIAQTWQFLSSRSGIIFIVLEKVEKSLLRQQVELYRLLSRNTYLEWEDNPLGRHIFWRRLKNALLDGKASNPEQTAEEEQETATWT
T1 sequence (Q9JHF9 19-160 partner): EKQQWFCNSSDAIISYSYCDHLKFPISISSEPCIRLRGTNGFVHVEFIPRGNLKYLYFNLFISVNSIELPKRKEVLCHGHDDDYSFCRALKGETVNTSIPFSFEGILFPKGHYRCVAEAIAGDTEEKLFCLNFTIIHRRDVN
Assay: Inhibitory effect with respect to NO production (LPS/interferon γ stimulated RAW264.7 cells)
Format: cell-based, murine
Conditions: test compound 100 nM, LPS 1.25 ng/mL + mouse interferon γ 0.2 ng/mL, nitrite ion in culture supernatant
Description: Inhibitory Effect With Respect to NO Production
The inhibitory effect on TLR4 was determined using the inhibition rate due to the test compound with respect to NO production as a result of addition of lipopolysaccharide (LPS) using murine macrophage cell line RAW264.7. The cells were adjusted to 2×10^6 cells/mL using RPM1-1640 culture medium (phenol red free) supplemented with 10% inactivated bovine fetal serum, and were plated on 384 well plate so as to contain 6×10^4 cells/30 μL per well. Thereafter the cells were cultured at 37° C. overnight under 5% CO2/95% air. The test compound dissolved in DMSO was diluted 200 times using RPM1-1640 culture medium and adjusted so as to form a compound concentration of 500 nM. The prepared test compound 10 μL (final concentration 100 nM) was added to the cells, and LPS (Sigma) and mouse interferon γ (Wako Pure Chemicals) were added in amounts of 10 μL so as to form final concentrations of 1.25 ng/mL and 0.2 ng/mL respectively. The cells were further cultured overnight, and then the nitrite ion (stable NO metabolite) concentration in the culture supernatant was measured as an index of NO production. The nitrite ion concentration was assayed by adding 10 μL of 20 μg/mL 2,3-diamino naphthalene (DAN) dissolved in 0.2N HCl to 20 μL culture supernatant, incubating at room temperature for ten minutes, and then adding 10 μL of 0.5N NaOH, and measuring the fluorescent value at 460 nm (excitation wavelength 355 nm) using an EnVision plate reader (Perkin Elmer). The NO production inhibition rate (%) was calculated using the value without the addition of stimulating agent as control of 100% inhibition, and the value without the addition of the compound as control of 0% inhibition.

| NO production inhibitory effect at 100 nM (% inhibition) | SMILES |
| --- | --- |
| 100 | CCOC(=O)C1=CC2(CCC1S(=O)(=O)Cc1ccc(F)cc1Cl)O[C@H](C)[C@@H](C)O2 (stereo partly drawn) [Compound 18, ethyl (2R,3R)-8-((2-chloro-4-fluorobenzyl)sulfonyl)-2,3-dimethyl-1,4-dioxaspiro[4.5]dec-6-ene-7-carboxylate] |
| 100 | CCOC(=O)C1=CC2(CCC1S(=O)(=O)Cc1cc(F)ccc1Cl)O[C@H](CO)[C@@H](CO)O2 (stereo partly drawn) [Compound 21, ethyl (2R,3R)-8-((2-chloro-5-fluorobenzyl)sulfonyl)-2,3-bis(hydroxymethyl)-1,4-dioxaspiro[4.5]dec-6-ene-7-carboxylate] |
| 110 | CCOC(=O)C1=CC2(CCC1S(=O)(=O)Cc1ccc(F)cc1Cl)OCCO2 (stereo not shown) [Compound 22, ethyl 8-((2-chloro-4-fluorobenzyl)sulfonyl)-1,4-dioxaspiro[4.5]dec-6-ene-7-carboxylate] |
| 100 | CCOC(=O)C1=CC2(CCC1S(=O)(=O)Cc1ccccc1Cl)O[C@@H](CO)[C@H](CO)O2 (stereo partly drawn) [Compound 23, ethyl (2S,3S)-8-((2-chlorobenzyl)sulfonyl)-2,3-bis(hydroxymethyl)-1,4-dioxaspiro[4.5]dec-6-ene-7-carboxylate] |
| 110 | CCOC(=O)C1=CC2(CCC1S(=O)(=O)Cc1c(C)cccc1Cl)O[C@@H](CO)[C@H](CO)O2 (stereo partly drawn) [Compound 26, ethyl (2S,3S)-8-((2-chloro-6-methylbenzyl)sulfonyl)-2,3-bis(hydroxymethyl)-1,4-dioxaspiro[4.5]dec-6-ene-7-carboxylate] |
| 94 | C#CCCCCOC[C@@H]1COC2(C=C(C(=O)OCC)C(S(=O)(=O)Cc3ccc(F)cc3Cl)CC2)O1 (stereo partly drawn) [Compound 28, ethyl (2R)-8-((2-chloro-4-fluorobenzyl)sulfonyl)-2-((hex-5-yn-1-yloxy)methyl)-1,4-dioxaspiro[4.5]dec-6-ene-7-carboxylate] |
| 86 | CCOC(=O)C1=CC2(CCC1S(=O)(=O)Cc1ccc(F)cc1Cl)OC[C@H](CNC(=O)OCc1ccccc1)O2 (stereo partly drawn) [Compound 29, ethyl (2S)-2-((((benzyloxy)carbonyl)amino)methyl)-8-((2-chloro-4-fluorobenzyl)sulfonyl)-1,4-dioxaspiro[4.5]dec-6-ene-7-carboxylate] |

Further lines, the compound ahead of its results:

| SMILES | NO production inhibitory effect at 100 nM (% inhibition) |
| --- | --- |
| CCOC(=O)C1=CC2(CCC1S(=O)(=O)Cc1cc(Cl)ccc1F)O[C@H](CO)[C@@H](CO)O2 (stereo partly drawn) [Compound 4, ethyl (2R,3R)-8-((5-chloro-2-fluorobenzyl)sulfonyl)-2,3-bis(hydroxymethyl)-1,4-dioxaspiro[4.5]dec-6-ene-7-carboxylate] | 100 |
| CCOC(=O)C1=CC2(CCC1S(=O)(=O)Cc1ccc(F)c(Cl)c1)O[C@H](CO)[C@@H](CO)O2 (stereo partly drawn) [Compound 5, ethyl (2R,3R)-8-((3-chloro-4-fluorobenzyl)sulfonyl)-2,3-bis(hydroxymethyl)-1,4-dioxaspiro[4.5]dec-6-ene-7-carboxylate] | 100 |
| CCOC(=O)C1=CC2(CCC1S(=O)(=O)Cc1ccc(F)cc1Cl)O[C@H](COC(C)=O)[C@@H](COC(C)=O)O2 (stereo partly drawn) [Compound 10, ethyl (2R,3R)-2,3-bis(acetoxymethyl)-8-((2-chloro-4-fluorobenzyl)sulfonyl)-1,4-dioxaspiro[4.5]dec-6-ene-7-carboxylate] | 110 |
| CCOC(=O)C1=CC2(CCC1S(=O)(=O)Cc1ccc(F)cc1Cl)O[C@H](COC)[C@@H](COC)O2 (stereo partly drawn) [Compound 11, ethyl (2R,3R)-8-((2-chloro-4-fluorobenzyl)sulfonyl)-2,3-bis(methoxymethyl)-1,4-dioxaspiro[4.5]dec-6-ene-7-carboxylate] | 110 |
| CCOC(=O)C1=CC2(CCC1S(=O)(=O)Cc1cccc(C)c1)O[C@H](CO)[C@@H](CO)O2 (stereo partly drawn) [Compound 12, ethyl (2R,3R)-2,3-bis(hydroxymethyl)-8-((3-methylbenzyl)sulfonyl)-1,4-dioxaspiro[4.5]dec-6-ene-7-carboxylate] | 100 |
| CCOC(=O)C1=CC2(CCC1S(=O)(=O)Cc1cccc(OC)c1)O[C@H](CO)[C@@H](CO)O2 (stereo partly drawn) [Compound 13, ethyl (2R,3R)-2,3-bis(hydroxymethyl)-8-((3-methoxybenzyl)sulfonyl)-1,4-dioxaspiro[4.5]dec-6-ene-7-carboxylate] | 100 |
| CCOC(=O)C1=CC2(CCC1S(=O)(=O)Cc1ccc(F)cc1Cl)O[C@H](COC(=O)CN)[C@@H](COC(=O)CN)O2 (stereo partly drawn) [Compound 16, ethyl (2R,3R)-2,3-bis((2-aminoacetoxy)methyl)-8-((2-chloro-4-fluorobenzyl)sulfonyl)-1,4-dioxaspiro[4.5]dec-6-ene-7-carboxylate] | 100 |
| CCOC(=O)C1=CC2(CCC1S(=O)(=O)Cc1ccc(F)cc1Br)O[C@H](CO)[C@@H](CO)O2 (stereo partly drawn) [Compound 17, ethyl (2R,3R)-8-((2-bromo-4-fluorobenzyl)sulfonyl)-2,3-bis(hydroxymethyl)-1,4-dioxaspiro[4.5]dec-6-ene-7-carboxylate] | 100 |
| CCOC(=O)C1=CC2(CCC1S(=O)(=O)Cc1ccc(F)cc1Cl)OC[C@@H](CNC(=O)OC(C)(C)C)O2 (stereo partly drawn) [Compound 27, ethyl (2R)-2-(((tert-butoxycarbonyl)amino)methyl)-8-((2-chloro-4-fluorobenzyl)sulfonyl)-1,4-dioxaspiro[4.5]dec-6-ene-7-carboxylate] | 98 |

Same assay, conditions: test compound 100 nM, LPS 1.25 ng/mL + mouse interferon γ 0.2 ng/mL, nitrite ion in culture supernatant, 0.1 µM

| NO production inhibitory effect at 100 nM (% inhibition) | SMILES |
| --- | --- |
| 110 | CCOC(=O)C1=CC2(CCC1S(=O)(=O)C(C)c1ccc(F)cc1Cl)O[C@H](CO)[C@@H](CO)O2 (single isomer, unassigned) [Compound 19] |
| 77 | CCOC(=O)C1=CC2(CCC1S(=O)(=O)C(C)c1ccc(F)cc1Cl)O[C@H](CO)[C@@H](CO)O2 (single isomer, unassigned) [Compound 20] |

Continued, compound first:

| SMILES | NO production inhibitory effect at 100 nM (% inhibition) |
| --- | --- |
| CCOC(=O)C1=CC2(CCC1S(=O)(=O)Cc1ccc(F)cc1Cl)O[C@@H](CO)[C@H](CO)O2 (single isomer, unassigned) [Compound 6] | 92 |
| CCOC(=O)C1=CC2(CCC1S(=O)(=O)Cc1ccc(F)cc1Cl)O[C@H](CO)[C@@H](CO)O2 (single isomer, unassigned) [Compound 15] | 75 |
| CCOC(=O)C1=CC2(CCC1S(=O)(=O)Cc1ccc(F)cc1Cl)OC[C@@H](CO)O2 (stereo partly drawn) [Compound 8, ethyl (2R)-8-((2-chloro-4-fluorobenzyl)sulfonyl)-2-(hydroxymethyl)-1,4-dioxaspiro[4.5]dec-6-ene-7-carboxylate] | 100 |
| CCOC(=O)C1=CC2(CCC1S(=O)(=O)Cc1ccc(F)cc1Cl)OC[C@@H](CO)O2 (stereo partly drawn) [Compound 9, ethyl (2R)-8-((2-chloro-4-fluorobenzyl)sulfonyl)-2-(hydroxymethyl)-1,4-dioxaspiro[4.5]dec-6-ene-7-carboxylate] | 110 |
